Results taken from PMC5405074, “Receptor-Mediated Melanoma Targeting with Radiolabeled α-Melanocyte-Stimulating Hormone: Relevance of the Net Charge of the Ligand” (Frontiers in Endocrinology, 2017).
Marks after values point to notes of the source that are not given here. Non-standard residues stand in square brackets, D forms with d. Residues, ends and D or L forms follow the SMILES beside them. *: point of attachment. DOTA = O=C(O)CN1CCN(CC(=O)O)CCN(CC(=O)*)CCN(CC(=O)O)CC1; Nle = CCCC[C@H](N)C(=O)O

Tested on: B16-F1 cells
Test: In situ melanin assay in B16-F1 cells
Format: cell-based, mouse
Details: for Reduction of biological activity compared to DOTA-NAP-amide: melanin assay
Procedure: The biological activity of the α-MSH derivatives was assessed with an in situ melanin assay ([40]). Briefly, B16-F1 cells (2,500 cells per well in 100 µL) were distributed into 96-well flat-bottom cell culture plates. MEM without phenol red, supplemented with 10% heat-inactivated fetal calf serum, 2 mM L-glutamine, 0.31 mmol/L L-tyrosine, 1% non-essential amino acids, 1% vitamin solution, 50 IU/mL penicillin, and 50 µg/mL streptomycin, was used as culture medium. After overnight incubation at cell culture conditions mentioned above, concentrations of α-MSH derivatives ranging from 1 × 10^−8 to 1 × 10^−12 in 100-µL volumes were added (in threefold dilution steps), and the incubation was continued for an additional 72 h. Melanin production was quantified by determining the absorbance at 310 nm in a microplate reader.

For `CCCC[C@H](NC(C)=O)C(=O)N[C@@H](CC(=O)O)C(=O)N[C@@H](Cc1c[nH]cn1)C(=O)N[C@H](Cc1ccccc1)C(=O)N[C@@H](CCCNC(=N)N)C(=O)N[C@@H](Cc1c[nH]c2ccccc12)C(=O)NCC(=O)N[C@@H](CCCCNC(=O)CN1CCN(CC(=O)O)CCN(CC(=O)O)CCN(CC(=O)O)CC1)C(=O)N[C@H](CC(=O)O)C(=O)N[C@H](CC(=O)O)C(=O)O` [DOTA-NAP-D-Asp-D-Asp, Ac-Nle-Asp-His-D-Phe-Arg-Trp-Gly-Lys(DOTA)-D-Asp-D-Asp-OH] (Ac-[Nle]DH[dF]RWGK(DOTA)[dD][dD]-OH), the “Reduction of biological activity compared to DOTA-NAP-amide” value was over 10 fold, the “Reduction of biological activity compared to DOTA-NAP-amide” value (listed as DOTA-NAP by D-Asp-D-Asp) was “around 11 fold” and the “Biological activity rEC50 [α-MSH = 1]” value (relative concentration vs. α-MSH (=1) inducing half-maximal melanin production by B16-F1 cells, 72 h, absorbance 310 nm, n = 3–13, ^c = P < 0.05 vs. DOTA-NAP-amide) was 7.66 ± 0.33^c.
